Source: a melting point compilation (Tetko et al.; mined from patent text by program, amines drawn as free bases though some values may be those of a salt)

Row | Structure (SMILES) | melting point [°C]
1 | O=S(=O)(c1c(-c2cc(Cl)cc(Cl)c2)[nH]c2c(Cl)cc(Cl)cc12)C(F)(F)F | 300 to 302
2 | CN(CCC#N)CCc1coc(-c2cc(C(C)(C)C)c(O)c(C(C)(C)C)c2)n1 | 104 to 105
3 | CCOC(=O)c1cc([N+](=O)[O-])ccc1OCc1ccc2ccccc2n1 | 139 to 140
4 | COc1ccc2c(c1)C(c1ccc([N+](=O)[O-])cc1)=NNC(=O)C2 | 282
5 | NCC1CCN(CCc2ccc(O)cc2)CC1 | 166 to 168
6 | Nc1ccc(-c2ccc(=O)[nH]n2)cc1Cl | 280 to 282
7 | CC(C)(C)OC(=O)CN1CCC2(CCNCC2)OC1=O | 110 to 115
8 | CCCCCCCCOC(=O)CCc1cc(-n2nc3ccc(S(=O)(=O)c4ccccc4)cc3n2)c(O)c(C(C)(C)C)c1 | 62 to 63
9 | CCCCC1OC(=O)c2cc(NC(=O)CCC(=O)O)ccc21 (configuration not stated) | 163 to 165
10 | CN(CC#N)Cc1nc(-c2cc(C(C)(C)C)c(O)c(C(C)(C)C)c2)cs1 | 150 to 156
11 | CN(CCc1ccc([N+](=O)[O-])cc1)C1CCN(c2ccc([N+](=O)[O-])cc2)CC1 | 97 to 98
12 | CCOC(=O)c1c(C)cc(NC(C)=O)c(C(=O)O)c1C | 170 to 171
13 | O=C1N(Cc2ccc(C(F)(F)F)o2)c2ccccc2C12COc1cc3c(cc12)OCCO3 (configuration not stated) | 53 to 56
14 | O=C(CBr)c1ccc(Br)c(Br)c1 | 60 to 61
15 | O=c1c(NCc2cccc(O)c2)c(Nc2ccc(O)c(-c3ccccn3)c2)c1=O | 271 to 272
16 | CC(=O)NN=C1CC2(CCN(C)CC2)OC1C (configuration not stated) | 164 to 167
17 | COc1ccc(Sc2nc(-c3ccccc3)cnc2N)cc1 | 116 to 118
18 | O=C(OC1CCCCC1=O)c1cccc2ccccc12 (configuration not stated) | 94 to 95
19 | CCCN(CCC)CCCC1CCN(CCNC(=O)N2c3cc(C)ccc3C(=O)Nc3cccnc32)CC1 | 195
20 | CN(C)c1cccc(CN2C(=O)C3(COc4cc5c(cc43)OCCO5)c3ccccc32)n1 (configuration not stated) | 196 to 197
21 | CC(=O)CN1CCc2c(c(=O)oc3ccccc23)C1 | 128 to 130
22 | CC(C)N1CC(c2nnc(Cc3ccc(F)cc3)o2)=C(O)C1=O | 204 to 206

Row | Structure (SMILES) | melting point [°C]
23 | COC1CC2(C)C(CCC3C4CCC(C(C)=O)C4(C)CC(=O)C32)CC1O (configuration not stated) | 163 to 164
24 | N#Cc1ccc(SCc2ccccc2)cc1 | 85
25 | CC(=O)C(Cl)=CSC(C)(C)C | 73
26 | CC(C)(C)OC(=O)N1C[C@@H]2OCc3c(-c4cccc(F)c4)nnn3[C@H]2C1 | 249 to 250
27 | N#Cc1cc(N)ccc1N1CCC(N2CCC(O)CC2)CC1 | 175
28 | O=C(O)c1cccc2c1CCCC2O (configuration not stated) | 160 to 162
29 | Cc1cccc(COc2cccnc2N)c1F | 115 to 118
30 | CCCCCCCCC(SCCCCCC)C(=O)Nc1c(SC)ccc2ncc(C)cc12 (configuration not stated) | 137 to 138
31 | O=Cc1ccccc1OCC(=O)NCCO[N+](=O)[O-] | 99 to 101
32 | Cc1ccc2c(c1)[nH]c(=O)n2C1CCN(C2CCN(C(=O)OC(C)(C)C)CC2)CC1 | 210 to 211
33 | O=C(O)CCCCN1CCN(C2=Nc3ccccc3Sc3ccc(Cl)cc32)CC1 | 220 to 221
34 | COc1ccc(C(=O)c2ccc(OCc3nc(-c4ccccc4)oc3C)cc2)c(OC(C)(C)C(=O)O)c1 | 175 to 177
35 | COC(=O)[C@@H]1CN(C(=O)OCc2ccccc2)C[C@H]1c1ccc(OC)c(OC2CCCC2)c1 (relative stereo) | 85
36 | O=c1ccn(CCOCc2ccccc2)c(C(O)c2ccccc2)c1OCc1ccccc1 (configuration not stated) | 154 to 155
37 | Nc1nc2c(c(Nc3ccccc3)n1)-c1ccccc1C2 | 215 to 217
38 | CCSc1sc(C#N)c(N(C)C(C)=O)c1C#N | 68
39 | COC(=O)NC1(C)CN(C(=O)Nc2ccc(C(F)(F)F)cc2)N=C1c1ccc(Cl)cc1 (configuration not stated) | 179 to 181
40 | CC(C)n1nc(-c2c(-c3ccccc3)nn3ccc(OCCN4CCCCC4)cc23)ccc1=O | 144
41 | COc1cc2c(Nc3ccc(Cl)cc3F)ncnc2cc1OCC1CCOC1 (configuration not stated) | 201 to 202
42 | O=C(CCC(=O)N(CCO)CCO)N(CCO)CCO | 89 to 91
43 | Cc1c(F)c(F)cc2c(=O)c(C(=O)O)cn(C3CC3)c12 | 240 to 243
44 | CCc1cc2c([nH]c1=O)C(=O)C=CC2=O | 168

Further lines, results first:

Row | melting point [°C] | Structure (SMILES)
45 | 125 to 128 | COCCS(=O)(=O)c1ccc(F)c(C#Cc2cc(Cl)ccc2OCC(=O)O)c1
46 | 145 to 147 | COC(SC)C(=O)c1[nH]c2cc(Br)c(Cl)cc2c1-c1ccccc1 (configuration not stated)
47 | 181 to 183 | CN1c2ccccc2N(C(=O)c2ccccc2)C(=O)c2cccnc21
48 | 92 | O=C(CF)CCCN1C(=O)c2ccccc2C1=O
49 | 102 | COc1cc(C)c(C(=O)c2c(Cl)cccc2Cl)cc1OC(C)(C)C
50 | 150 to 155 | O=C(Nc1ccc2c(c1)OC(F)(F)O2)N1CC(c2ccc(Cl)cc2)=C(c2ccc(Cl)cc2)N1
51 | 186 to 187 | CC(C)(C)OC(=O)N[C@H](CC(=O)OCc1ccccc1)C(=O)N[C@H](CO)C(C)(C)C
52 | > 250 | Cn1cc(C(N)=O)c(Nc2ccc(Cl)c(Cl)c2)cc1=O
53 | 91 to 94 | COc1cc(N)c2ncccc2c1OCC(F)(F)F
54 | > 230 | N#Cc1c(-c2ccc(Cl)c(Cl)c2)[nH]c(I)c1I
55 | 145 to 148 | CONC(=O)Nc1cc(C(C)(C)C)on1
56 | 126 to 128 | COC(=O)c1nc(-c2ccc(Cl)c(OC)c2F)nc(N)c1C#C[Si](C)(C)C
57 | 81 | Cc1cn(C2CC(ON)C(CO)O2)c(=O)[nH]c1=O (configuration not stated)
58 | 102 to 105 | CN(Cc1ccccc1)C(N)=NC#N
59 | 125 | CCOC(=O)c1cc(Br)c(C(=O)OCC)cc1Cl
60 | 252 to 253 | N=C(N)NNC1=NS(=O)(=O)c2ccccc21
61 | 219 | Cc1ccc2c(c1)c(Cl)c(C#N)c(=O)n2Cc1ccccc1
62 | 133 | CC(C)(C)OC(=O)N1CC[C@@H](CN(Cc2ccccc2)Cc2ccccc2)[C@H](O)C1 (relative stereo)
63 | 197 to 200 | CCCCc1nc[nH]c(=O)c1Cc1ccc(-c2ccccc2C(=O)O)cc1
64 | 150 to 154 | CC(C)NCCNC(=O)c1ccc(OCc2ccc(-c3ccccc3)cc2)cc1

Row | melting point [°C] | Structure (SMILES)
65 | 134 to 135 | CCCC12C=CC=CC1C(=O)N(c1nc(C#N)c(C#N)[nH]1)C2=O (configuration not stated)
66 | 117 to 120 | CCC(CC)Nc1c([N+](=O)[O-])cc(C)c(COC(=O)NC)c1[N+](=O)[O-]
67 | 122 | COCCc1nc2c(N)nc3ccccc3c2n1CCOCCN(C)C(=O)N1CCOCC1
68 | 110 to 111 | Cn1c(=O)c2c(ncn2CC(O)Cc2noc(CCN3CCCCC3)n2)n(C)c1=O (configuration not stated)
69 | 252 to 253 | CC(C)c1c(C(=O)c2cc(Cl)cc(Cl)c2)[nH]c(=O)[nH]c1=O
70 | 242 to 245 | CC(C)=NNc1ccnc2c(NC(=O)c3c(Cl)cccc3Cl)cc(C)cc12
71 | 125 to 127 | CCc1cc(C(=O)OC)c(Nc2ccc(OC)cc2[N+](=O)[O-])s1
72 | 178 to 179 | CCCCc1nc(I)c(C=O)n1Cc1ccc(C(=O)OC)c2ccccc12
73 | 150 to 186 | O=C(CC(F)(F)F)NC[C@H]1CN(c2ccc3c(c2)CCCc2cnoc2-3)C(=O)O1
74 | 298 to 299 | O=C(NC(Cc1ccc(OCc2ccccc2)cc1)C(=O)O)c1cc2cc(-c3ccc(Cl)cc3)ccc2[nH]c1=O (configuration not stated)
75 | 210 to 214 | COc1cc2ncc(C#N)c(Nc3ccc(F)c(Cl)c3)c2cc1NC(=O)C=CCN(C)CCO
76 | 207 to 208 | Cc1cc(-c2cc(O)c(Cl)cc2F)c(=O)n(C)c1C(F)(F)F
77 | 195 to 198 | COc1cc(OC)c2c(=O)[nH]c(-c3cc(C)c(OCCN4CCN(C)CC4)c(C)c3)cc2c1
78 | 198 to 200 | O=C(Nc1ccccc1)Nc1ccnc(O)c1
79 | 187 to 188 | O=C(NCc1ccccn1)Nc1cc(N2CC(c3cccs3)OC2=O)ccn1 (configuration not stated)
80 | 132 to 133 | O=C(NCC(=O)c1ccco1)c1ccccc1
81 | 155 to 158 | COc1cc(N)c(C(=O)c2ccncc2)cc1OC
82 | 162 to 163 | CCCCc1nc(Cl)c(CO)n1Cc1ccc(-c2cccc(C(=O)OC)c2)cc1
83 | 202 to 203 | O=C(N[C@H](Cc1ccc(C(F)(F)F)cc1)[C@@H](O)c1ccc(F)cc1)c1ccc(F)cc1 (racemic)
84 | 160 to 162 | CCc1cc(NC2=NCCN2C(C)=O)n(C)n1

Row | melting point [°C] | Structure (SMILES)
85 | 91 to 92 | N#CSc1ccc(O)cc1Br
86 | 105 to 106 | [N-]=[N+]=NC(=O)C=Cc1cccc2[nH]ccc12
87 | 142 to 144 | Oc1cc(=S)sc2cccc(C(F)(F)F)c12
88 | 188 to 190 | COC(=O)c1cc(N)nc(-c2ccc(Cl)c(OC)c2F)n1
89 | 188 to 192 | Nc1cccc(F)c1C(=O)NCC(=O)O
90 | 164 to 166 | CCCOCCOc1ccccc1-c1ccc2c(c1)C=C(C(=O)Nc1ccc(CN(C)C3CCOCC3)cc1)CCS2(=O)=O
91 | 162 to 170 | Cc1ccc(S(=O)(=O)Oc2cccc(NC(=O)NS(=O)(=O)c3ccccc3)c2)cc1
92 | 225 to 227 | N#Cc1ccc(Cn2c3cc(O)c(O)cc3c3ccc(O)c(O)c32)cc1
93 | 226 | O=C1CCCc2c1[nH]c1ccc(Cl)cc21
94 | 68 to 69 | CCOC(=O)c1ncc(-c2cccs2)s1
95 | 175 to 177 | CN1C(=O)CCC2(C)c3ccc(Sc4ccc5ccccc5n4)cc3CCC12 (single isomer, unassigned; (+))
96 | 134 to 135 | Cc1ccc(C(C)N(O)C(N)=O)cc1 (configuration not stated)
97 | 281 to 285 | CCOC(=O)c1ccc(N2CCN(c3c(C)nc(N)nc3N)CC2)cc1
98 | 105 to 106 | Cn1c(CCNS(C)(=O)=O)nnc1NCCCOc1cccc(CN2CCCCC2)c1
99 | 185 to 187 | CCc1cc(Oc2cncc3sc(C(N)=O)cc23)ccc1Cl
100 | 119 to 120 | O=C(O)Cc1cc(Cl)c(Cl)cc1[N+](=O)[O-]
101 | 206 to 208 | Fc1cc(CC2(Cc3ccncc3)c3ccccc3Oc3ncccc32)ccn1 (configuration not stated)
102 | 158 | CCCC1CCC(C2CCc3c(c(F)c(F)c4cc(OCC)ccc34)O2)CC1 (configuration not stated)
